From patent publication US6509163B1, “Methods of screening modulators of mammalian P2X7 purinergic receptors” (Glaxo Group Limited, priority 1997, dated 2003)
Where two headings read alike, the source gives them in different places.

Columns and labels:
Format in all cases: cell-based
P2X7 receptor = target: T1, P2X7 receptor (Rattus norvegicus, UniProt Q64663); assay: Whole-cell recordings of agonist-evoked currents in HEK293 cells transfected with rat P2X7 cDNA (Example 2); conditions: for EC50: read-out: EC50 (half-maximal concentration) for current
T1 construct: yielding a construct that encoded the entire P2X7 protein; expressed in transfected cells
T1 sequence (Q64663 1-595): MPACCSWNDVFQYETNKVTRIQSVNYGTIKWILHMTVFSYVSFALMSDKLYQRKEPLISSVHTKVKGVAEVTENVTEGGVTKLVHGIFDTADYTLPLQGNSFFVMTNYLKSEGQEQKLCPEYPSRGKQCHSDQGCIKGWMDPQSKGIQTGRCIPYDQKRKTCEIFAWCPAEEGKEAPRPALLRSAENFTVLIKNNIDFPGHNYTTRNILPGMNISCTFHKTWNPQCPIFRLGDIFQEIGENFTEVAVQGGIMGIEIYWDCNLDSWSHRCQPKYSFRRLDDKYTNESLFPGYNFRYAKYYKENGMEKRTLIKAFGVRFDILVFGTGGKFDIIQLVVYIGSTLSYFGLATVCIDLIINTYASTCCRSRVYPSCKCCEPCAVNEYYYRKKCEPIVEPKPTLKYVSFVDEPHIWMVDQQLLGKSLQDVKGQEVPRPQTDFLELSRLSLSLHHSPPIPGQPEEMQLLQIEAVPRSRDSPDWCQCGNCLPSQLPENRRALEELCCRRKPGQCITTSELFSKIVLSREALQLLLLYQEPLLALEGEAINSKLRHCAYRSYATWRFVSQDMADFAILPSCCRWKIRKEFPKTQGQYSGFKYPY
Method: Whole-cell recordings were obtained at room temperature from HEK293 cells transiently or stably transfected with P2X7 cDNA, from HEK293 cells transiently transfected with P2X7ΔC cDNA, and from J774A.1 cells (American Type Culture Collection, Rockville, Md.). Agonist were applied for periods of 1 to 3 s by a fast-flow U-tube delivery system (Fenwick et al, J. Physiol. (London) 331:577 (1982)). The internal pipette solution was 140 mM cesium-aspartate or potassium-aspartate, 20 mM NaCl, 10 mM EGTA, and 5 mM Hepes: normal external solution was 145 mM NaCl, 2 mM KCl, 2 mM CaCl2, 1 mM MgCl2, 10 mM Hepes, and 12 mM glucose. Low divalent external solution was nominally magnesium-free with 0.3 mM CaCl2. For cells expressing P2X7 receptors and J774 cells, concentration-response curves were constructed in low divalent solution by recording currents in response to 1-s applications of agonist at 8-min intervals with normal external solution present for 6 min before each application. This protocol was necessary to prevent the development of sustained inward currents. Lipofectin was used for transfection (Buell et al, EMBO J. 15:55 (1996)).
Reversal potentals (Erev) were obtained by application of ATP (300 μM) or BzATP (30 μM) while the membrane was held at various potentals or by application of voltage ramps from −120 to 30 or 50 mV. Permeability ratios from (Erev) were calculated by first computing α (=Pna/PK, where P is permeability) for internal (i) and external (o) concentrations [Na]i=20 mM, [Na]o=145 mM, [Ko]=0 mM, and [K]i=140 mM from α={[145/exp(Erev)F/RT −20]}/140 (where F is the Faraday, R is the gas constant, and T is the absolute temperature). Other PK/PNa values, when [X]o=145 mM, [Na]i=20 mM, [K]i=140 mM, and [Na]o=[K]o=[X]i=0 mM, were computed from PK/PNa={[exp (ErevF/RT) (20=140α)}/145. In order of size (FIG. 3C), X was cesium, methylamine, tris(hydroxymethyl)-aminomethane, tetraethylammonium, and N-methyl-D-glucamine. The internal solution also contained 10 mM EGTA and 5 mM Hepes. External solutions also contained 10 mM glucose and normal or low concentrations of divalent cations; pH was maintained at 7.3 with HCl, histidine, or Hepes as required, and the osmolarity of all solutions was 295 to 315.

hP2X7 receptor = target: T2, hP2X7 receptor (Homo sapiens, UniProt Q99572); assay: Whole-cell recordings in HEK293 cells transiently transfected with hP2X7 receptors (Example 3)
T2 construct: a clone containing the complete open reading frame of the hP2X7 receptor was constructed; expressed in transfected cells; host or cells: HEK293 (transient), pcDNA3
T2 sequence (Q99572 1-595): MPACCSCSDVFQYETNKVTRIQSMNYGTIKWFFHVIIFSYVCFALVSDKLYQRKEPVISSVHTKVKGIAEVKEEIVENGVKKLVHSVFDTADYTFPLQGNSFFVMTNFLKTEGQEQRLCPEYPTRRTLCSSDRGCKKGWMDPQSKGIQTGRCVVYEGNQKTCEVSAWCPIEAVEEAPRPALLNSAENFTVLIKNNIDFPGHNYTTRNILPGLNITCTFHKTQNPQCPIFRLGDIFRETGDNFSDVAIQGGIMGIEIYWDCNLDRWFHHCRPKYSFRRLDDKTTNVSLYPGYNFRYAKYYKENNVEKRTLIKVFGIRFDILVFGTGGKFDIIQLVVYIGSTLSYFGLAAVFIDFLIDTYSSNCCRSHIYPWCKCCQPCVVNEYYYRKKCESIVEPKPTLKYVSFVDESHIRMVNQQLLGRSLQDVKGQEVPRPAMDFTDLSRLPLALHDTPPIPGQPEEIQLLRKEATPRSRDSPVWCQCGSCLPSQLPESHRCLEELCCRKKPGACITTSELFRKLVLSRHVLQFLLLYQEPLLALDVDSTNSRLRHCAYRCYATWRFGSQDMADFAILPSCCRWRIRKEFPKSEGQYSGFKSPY
Method: (§1) Cell culture. HEK293 cells were transiently transfected with cDNA (1 μg/ml) and lipofectin dissolved in Optimem (GIBCO) placed into petri dishes containing four coverslips onto which cells were plated at a density of about 8×10^4/coverslip. Cells were washed 5 h later and normal DMEM applied. Electrophysiological studies or dye uptake measurements were carried out 18-49 h later. For each set of transfections, parallel experiments were performed on HEK cells transfected with cDNA encoding both rP2X7 and hP2X7 receptors.
(§2) Electrophysiological experiments. Whole-cell recordings were made using the EPC9 patch-clamp amplifier and Pulse acquisition programs (HEKA, Lambrecht, Germany). Patch pipettes (5-7 MΩ) contained (mM) CsCl or NaCl 154, EGTA 10, HEPES 5. The normal extracellular solution contained (mM) NaCg 147, KCl2, CaCl2 2, MgCl2 1, HEPES 10 and glucose 12, and the “low divalent” solution had no magnesium and 0.3 mM CaCl2. Agonists were delivered by U-tube delivery system; antagonists, when applied, were present in both superfusion and U-tube. Experiments were carried out at room temperature.

rP2X7 receptor = target: T3, rP2X7 receptor (Rattus norvegicus, UniProt Q64663); assay: Whole-cell recordings in HEK293 cells transiently transfected with rP2X7 receptors (Example 3)
T3 construct: yielding a construct that encoded the entire P2X7 protein; expressed in transfected cells
T3 sequence (Q64663 1-595): T1 sequence (Q64663 1-595)
Method: as §1, §2

Nc1ncnc2c1ncn2[C@@H]1O[C@H](COP(=O)(O)OP(=O)(O)OP(=O)(O)O)[C@@H](OC(=O)c2ccc(C(=O)c3ccccc3)cc2)[C@H]1O [BzATP, 3′-O-(4-benzoyl)benzoyl ATP]
Current amplitude (mean±SEM) to BzATP (P2X7 receptor; 30 μM BzATP, normal solution, holding potential −70 mV, transiently transfected HEK cells, n=18): 636±118 pA
EC50 (P2X7 receptor; normal solution (2 mM CaCl2, 1 mM MgCl2), n=4): 7 ± 2 µM
EC50 (P2X7 receptor; zero magnesium, n=7): 3.7 ± 0.7 µM
EC50 at hP2X7 relative to rP2X7 receptor (fold greater) (hP2X7 receptor): 25 fold
potency to activate the receptor relative to ATP (hP2X7 receptor): 10 fold
cation current induced by maximal concentration of BzATP (hP2X7 receptor; 300 μM BzATP, n=12): 1777±342 pA
current measured at 30 s, of the peak current (hP2X7 receptor; BzATP 300 μM, low extracellular divalent concentrations, n=16): 18±2%
cation current induced by maximal concentration of BzATP (rP2X7 receptor; 30 μM BzATP, n=12): 1869±286 pA
current measured at 30 s, of the peak current (rP2X7 receptor; low extracellular divalent concentrations, n=13): 80±3%
